Columns and labels:
[1] = molecular target: T1, GST tagged LXRbeta LBD (ligand binding domain) (Homo sapiens, UniProt P55055); assay: LanthaScreen TR-FRET Liver X Receptor Coactivator Assay, LXR beta-LBD (co-activator recruitment; IP and % Emax relative to T0901317); assay type: biochemical; settings: for EC50: Inflection Point of co-activator recruitment, LXR beta-LBD, TR-FRET; for Emax: efficacy at max dose in relation to reference T0901317, LXR beta-LBD, read-out: LXR beta actiivty at max dose (%)
T1 construct: purchased Invitrogen pv4658.pps
T1 sequence (P55055 222-460 limits assumed): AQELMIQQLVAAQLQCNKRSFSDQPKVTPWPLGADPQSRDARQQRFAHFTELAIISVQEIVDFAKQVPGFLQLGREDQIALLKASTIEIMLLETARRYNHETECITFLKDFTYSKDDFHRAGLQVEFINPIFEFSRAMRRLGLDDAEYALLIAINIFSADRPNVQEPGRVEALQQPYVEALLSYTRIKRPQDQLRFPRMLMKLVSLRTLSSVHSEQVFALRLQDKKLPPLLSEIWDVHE
How it was run: (§1)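 Coactivator recruitment is scored against T0901317 as reference dual agonist, giving inflection-point potency and Emax. Compounds met the GST-LBD protein first, then a mix of terbium anti-GST antibody and fluorescein coactivator peptide. TR-FRET was measured after incubation at room temperature.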

[2] = molecular target: T2, GST tagged LXRalpha LBD (ligand binding domain) (Homo sapiens, UniProt Q13133); assay: LanthaScreen TR-FRET Liver X Receptor Coactivator Assay, LXR alpha-LBD (co-activator recruitment; IP and % Emax relative to T0901317); assay type: biochemical; settings: for LXR alpha IP (nM) / EC50: Inflection Point of co-activator recruitment, LXR alpha-LBD, TR-FRET; for Emax: efficacy at max dose in relation to reference T0901317, LXR alpha-LBD, read-out: LXR alpha actiivty at max dose (%)
T2 construct: purchased Invitrogen pv4655
T2 sequence (Q13133 209-447 limits assumed): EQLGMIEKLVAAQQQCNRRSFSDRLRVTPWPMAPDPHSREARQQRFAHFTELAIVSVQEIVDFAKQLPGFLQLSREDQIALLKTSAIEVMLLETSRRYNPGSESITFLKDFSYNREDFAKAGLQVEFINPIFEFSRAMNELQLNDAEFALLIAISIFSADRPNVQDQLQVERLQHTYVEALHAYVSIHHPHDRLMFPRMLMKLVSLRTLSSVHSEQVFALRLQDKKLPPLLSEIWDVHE
How it was run: as §1

EC50 [1] | Emax [1] | LXR alpha IP (nM) [2] | Emax [2] | EC50 [2] | Structure (SMILES)
264 nM | 69% | No IP | 3% |  | CN(C)C(=O)c1ccc(N2CCC([C@@H]3C[C@H]3CNC(=O)[C@](O)(c3ccccc3)C(F)(F)F)CC2)nc1Cl [Example 15-14, 2-chloro-N,N-dimethyl-6-(4-((1S,2R)-2-(((R)-3,3,3-trifluoro-2-hydroxy-2-phenylpropanamido)methyl)cyclopropyl)piperidin-1-yl)nicotinamide]
1120 nM | 32% | No IP | 2% |  | COc1cccc([C@@](O)(C(=O)N(C)CCCC2CCN(c3ncc(C(=O)N(C)C)cc3Cl)CC2)C(F)(F)F)c1 [Example 2-22, (R)-5-chloro-N,N-dimethyl-6-(4-(3-(3,3,3-trifluoro-2-hydroxy-2-(3-methoxyphenyl)-N-methylpropanamido)propyl)piperidin-1-yl)nicotinamide]
163 nM | 56% | No IP | 0% |  | CCc1cccc([C@](O)(C(=O)N(C)CCCC2CCN(c3ccc(C(=O)N(C)C)c(Cl)n3)CC2)C(F)(F)F)c1 [Example 1-31, (S)-2-chloro-6-(4-(3-(2-(3-ethylphenyl)-3,3,3-trifluoro-2-hydroxy-N-methylpropanamido)propyl)piperidin-1-yl)-N,N-dimethylnicotinamide]
26 nM | 53% | No IP | 11% |  | CN(C)C(=O)c1ccc(N2CCC([C@H]3C[C@H]3CN(C)C(=O)[C@](O)(c3cccc(C(F)(F)F)c3)C(F)(F)F)CC2)nc1Cl [Example 15-7, 2-chloro-N,N-dimethyl-6-(4-((1R,2R)-2-(((R)-3,3,3-trifluoro-2-hydroxy-N-methyl-2-(3-(trifluoromethyl)phenyl)rpropanamido)methyl)cyclopropyl)piperidin-1-yl)nicotinamide]
5730 nM | 22% | No IP | 0% |  | COc1cccc([C@@](O)(C(=O)N(C)CCCC2CCN(c3ccc(C(=O)N(C)C)c(C4CC4)n3)CC2)C(F)(F)F)c1 [Example 2-17, (R)-2-cyclopropyl-N,N-dimethyl-6-(4-(3-(3,3,3-trifluoro-2-hydroxy-2-(3-methoxyphenyl)-N-methylpropanamido)propyl)piperidin-1-yl)nicotinamide]
366 nM | 19% | No IP | 0% |  | CN(C)C(=O)c1ccc(N2CCC(CCCN(C)C(=O)C3(c4ccccc4)OCCO3)CC2)nc1Cl [Example 1-14, 2-chloro-N,N-dimethyl-6-(4-(3-(N-methyl-2-phenyl-1,3-dioxolane-2-carboxamido)propyl)piperidin-1-yl)nicotinamide]
1410 nM | 37% | No IP | 16% |  | CNC(=O)c1ccc(N2CCC3(CC2)C[C@H]3CCN(C)C(=O)[C@](O)(c2ccccc2)C(F)(F)F)cc1Cl [Example 7-24, 2-chloro-N-methyl-4-((S)-1-(2-((R)-3,3,3-trifluoro-2-hydroxy-N-methyl-2-phenylpropanamido)ethyl)-6-azaspiro[2.5]octan-6-yl)benzamide]
16 nM | 75% | No IP | 18% |  | CN(C)C(=O)c1ccc(N2CCC([C@H]3C[C@H]3CN(C)C(=O)[C@](O)(c3cccc(C4CC4)c3)C(F)(F)F)CC2)nc1Cl [Example 15-5, 2-chloro-6-(4-((1R,2R)-2-(((R)-2-(3-cyclopropylphenyl)-3,3,3-trifluoro-2-hydroxy-N-methylpropanamido)methyl)cyclopropyl)piperidin-1-yl)-N,N-dimethylnicotinamide]
105 nM | 104% |  | 28% | 5140 nM | CN(C)C(=O)c1ccc(N2CCC(CCCNC(=O)[C@](O)(c3ccccc3)C(F)(F)F)CC2)nc1Cl [Example 5-8, (R)-2-chloro-N,N-dimethyl-6-(4-(3-(3,3,3-trifluoro-2-hydroxy-2-phenylpropanamido)propyl)piperidin-1-yl) nicotinamide]
508 nM | 32% | No IP | 6% |  | CN(C)C(=O)c1ccc(N2CCC(CCCN(C)C(=O)[C@](C)(O)c3ccccc3)CC2)nc1Cl [Example 1-20, (R)-2-chloro-6-(4-(3-(2-hydroxy-N-methyl-2-phenylpropanamido)propyl)piperidin-1-yl)-N,N-dimethylnicotinamide]
36 nM | 60% |  | 40% | 1180 nM | CNC(=O)c1ccc(N2CCC3(CC2)CC3CCN(C)C(=O)[C@](O)(c2cccc(OC)c2)C(F)(F)F)nc1Cl (stereo in doubt) [Example 7-20, 2-chloro-N-methyl-6-((R)-1-(2-((R)-3,3,3-trifluoro-2-hydroxy-2-(3-methoxyphenyl)-N-methylpropanamido)ethyl)-6-azaspiro[2.5]octan-6-yl)nicotinamide]
110 nM | 54% | No IP | 11% |  | CN(C)C(=O)c1ccc(N2CCC(CCCN(C)C(=O)C3(c4ccccc4)CCC3)CC2)nc1Cl [Example 1-43, 2-chloro-N,N-dimethyl-6-(4-(3-(N-methyl-1-phenyl-cyclobutanecarboxamido)propyl)piperidin-1-yl)nicotinamide]
148 nM | 63% | No IP | 0% |  | COc1cccc([C@](O)(C(=O)N(C)CCCC2CCN(c3ccc(C(=O)N(C)C)c(Cl)n3)CC2)C(F)F)c1 [Example 1-13, (S)-2-chloro-6-(4-(3-(3,3-difluoro-2-hydroxy-2-(3-methoxyphenyl)-N-methylpropanamido)propyl)piperidin-1-yl)-N,N-dimethylnicotinamide]
148 nM | 20% | No IP | 0% |  | CN(C)C(=O)c1ccc(N2CCC([C@H]3C[C@@H](N(C)C(=O)[C@](O)(c4cccc(OC5CC5)c4)C(F)(F)F)C3)CC2)nc1Cl [Example 17-5, Cis-2-chloro-6-(4-(-3-((R)-2-(3-cyclopropoxyphenyl)-3,3,3-trifluoro-2-hydroxy-N-methylpropanamido)cyclobutyl)piperidin-1-yl)-N,N-dimethylnicotinamide]
32 nM | 61% |  | 24% | 601 nM | CN(C)C(=O)c1ccc(N2CCC3(CC2)C[C@@H]3CCN(C)C(=O)[C@](O)(c2cccc(OC3CC3)c2)C(F)(F)F)cc1Cl [Example 7-3, 2-chloro-4-((R)-1-(2-((R)-2-(3-cyclopropoxyphenyl)-3,3,3-trifluoro-2-hydroxy-N-methylpropanamido)ethyl)-6-azaspiro[2.5]octan-6-yl)-N,N-dimethylbenzamide]
159 nM | 102% |  | 40% | 1780 nM | CC(C)[C@@](O)(C(=O)N(C)CCCC1CCN(c2ccc(C(=O)N(C)C)c(Cl)n2)CC1)C(F)(F)F [Example 1-3, (R)-2-chloro-6-(4-(3-(2-hydroxy-N,3-dimethyl-2-(trifluoromethyl)butanamido)propyl)piperidin-1-yl)-N,N-dimethylnicotinamide]
686 nM | 80% | No IP | 11% |  | CC(C)C(O)(C(=O)NCCCC1CCN(c2ccc(C(=O)N(C)C)c(Cl)c2)CC1)C(F)(F)F (stereo not shown) [Example 5-2, 2-chloro-4-(4-(3-(2-hydroxy-3-methyl-2-(trifluoromethyl)butanamido)propyl)piperidin-1-yl)-N,N-dimethyl-benzamide]
580 nM | 43% | No IP | 0% |  | COc1cccc([C@@](O)(C(=O)N(C)CCCC2CCN(c3ccc(C(=O)N(C)C)c(Cl)n3)CC2)C(F)F)c1 [Example 1-53, (R)-2-chloro-6-(4-(3-(3,3-difluoro-2-hydroxy-2-(3-methoxyphenyl)-N-methylpropanamido)propyl)piperidin-1-yl)-N,N-dimethylnicotinamide]

Structure (SMILES) | EC50 [1] | Emax [1] | LXR alpha IP (nM) [2] | Emax [2] | EC50 [2]
CN(C)C(=O)c1ccc(N2CCC(CCCN(C)C(=O)[C@](O)(c3ccccc3)C3CCC3)CC2)nc1Cl [Example 1-22, (R)-2-chloro-6-(4-(3-(2-cyclobutyl-2-hydroxy-N-methyl-2-phenylaceetamido)propyl)piperidin-1-yl)-N,N-dimethylnicotinamide] | 64 nM | 94% | No IP | 9% | 

— patent publication US10961215B2, “N-aryl and N-heteroaryl piperidine derivatives as liver X receptor beta agonists, compositions, and their use” (Merck Sharp & Dohme Corp., priority 2016, dated 2021)
